This passage reports Papp, IC50 and logD results from patent US20240270715A1, “INHIBITORS OF TRANSGLUTAMINASES” (ZEDIRA GMBH, priority 2021, published 2024).

The nature of series [1]: Caco-2 permeability assay (CacoReady kit). It is filed as in vitro ADME. To be noted: human. The method, then: Permeability coefficients (Papp values) were obtained from Caco-2 barrier studies predicting oral/intestinal bioavailability of the tested compounds. The assays were performed by using CacoReady™ ready-to-use kits from ReadyCell according to the manufacturers protocol.

The target in series [2] is T1, recombinant human transglutaminase 2 (Homo sapiens, UniProt P21980).
T1 sequence (P21980 1-687): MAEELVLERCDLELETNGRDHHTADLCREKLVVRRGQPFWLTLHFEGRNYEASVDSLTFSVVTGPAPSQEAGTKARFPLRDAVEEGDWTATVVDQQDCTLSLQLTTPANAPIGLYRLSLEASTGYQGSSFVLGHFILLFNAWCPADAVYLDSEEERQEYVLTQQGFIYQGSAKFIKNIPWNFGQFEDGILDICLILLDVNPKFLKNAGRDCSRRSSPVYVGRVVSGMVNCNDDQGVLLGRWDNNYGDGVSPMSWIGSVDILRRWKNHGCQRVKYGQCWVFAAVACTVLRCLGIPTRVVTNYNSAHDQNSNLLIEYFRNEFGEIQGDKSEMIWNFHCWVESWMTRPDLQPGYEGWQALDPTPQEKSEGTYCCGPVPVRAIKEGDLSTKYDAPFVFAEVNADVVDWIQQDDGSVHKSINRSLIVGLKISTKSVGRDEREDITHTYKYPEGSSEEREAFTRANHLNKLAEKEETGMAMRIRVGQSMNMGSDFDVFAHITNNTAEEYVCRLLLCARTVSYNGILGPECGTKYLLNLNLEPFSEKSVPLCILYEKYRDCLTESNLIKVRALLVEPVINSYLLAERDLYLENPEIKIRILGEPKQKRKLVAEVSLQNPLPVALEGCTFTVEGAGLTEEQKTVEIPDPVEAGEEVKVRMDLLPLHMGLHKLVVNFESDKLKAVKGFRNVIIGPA
Briefly: Transglutaminase assay: incorporation of dansylcadaverine into dimethylcasein (DCC-assay). It is filed as biochemical. To be noted: recombinant human TG2 10 nM, dansylcadaverine/dimethylcasein; read-out: IC50 TG2. The method, then: To illustrate the advantage of branched alkyl moieties over aromatic moieties, we refer to reference compounds Ref. 2 (ZED1227, U.S. Pat. No. 9,434,763 B2) and Ref. 3 (A8, ZED1047). Inhibition data were determined using the classical fluorescent transamidation assay (dansylcadaverine incorporation into methylated casein, DCC-assay) as described [Büchold, C.; Hils, M.; Gerlach, U.; Weber, J.; Pelzer, C.; Heil, A.; Aeschlimann, D.; Pasternack, R. Features of ZED1227: The First-In-Class Tissue Transglutaminase Inhibitor Undergoing Clinical Evaluation for the Treatment of Celiac Disease. Cells 2022, 11, 1667. https://doi.org/10.3390/cells11101667]. Casein is one of the best known high molecular weight (24 kDa) protein substrates for transglutaminases. Please note, the IC50 value of Ref. 3 (A8) published in U.S. Pat. No. 9,434,763 B2 cannot be compared to the present data, relying on a fluorogenic isopeptidase assay.
To this extent, inhibition data were determined using the classical fluorescent transamidation assay (dansylcadaverine incorporation into methylated casein, DCC-assay) as described in Büchold et al. [Büchold, C.; Hils, M.; Gerlach, U.; Weber, J.; Pelzer, C.; Heil, A.; Aeschlimann, D.; Pasternack, R. Features of ZED1227: The First-In-Class Tissue Transglutaminase Inhibitor Undergoing Clinical Evaluation for the Treatment of Celiac Disease. Cells 2022, 11, 1667. https://doi.org/10.3390/cells11101667]. Casein is one of the best known high molecular weight (24 kDa) protein substrates for transglutaminases. Inhibition data of the inventive compounds was compared with inhibition of compounds disclosed in U.S. Pat. No. 9,434,763 B2, particularly, compound A8, which is denoted herein as Reference 3. It is noteworthy that the IC50 values of compounds A8 published in U.S. Pat. No. 9,434,763 B2 and E16 from U.S. Pat. No. 11,072,634 B2 cannot be compared to the present data, relying on a fluorogenic isopeptidase assay.
For the determination of potency of inhibitors against tissue transglutaminase, the incorporation of dansylcadaverine into dimethylcasein (Zedira product T036, Lorand et al., Anal Biochem, 1971, 44:221-31) was measured using recombinant human transglutaminase 2 (Zedira Product T022).
The tissue transglutaminase is diluted in buffer (50 mM Tris-HCl, 7.5 mM CaCl2, 150 mM NaCl, pH=7.4). The final concentration of TG2 in the assay is 10 nM.
A 10 mM inhibitor stock solution is prepared in DMSO, and from this a serial 1:2-fold dilution series is prepared also in DMSO. Each of the initial dilutions is subsequently diluted 1:50-fold with buffer (50 mM Tris-HCl, 7.5 mM CaCl2, 150 mM NaCl, pH=7.4) to yield the final working dilutions containing 2% (v/v) DMSO. 15 μl of inhibitor working dilution are added per well of a 96 well microtiter plate. As control, 15 μl of a 2% (v/v) DMSO solution prepared using the buffer mentioned above are added per well.
Immediately before starting the assay, 600 μl transglutaminase working solution are added to 11.4 ml assay buffer (50 mM Tris-HCl, 10 mM CaCl2, 10 mM glutathione, 2.5% glycerol, 16.7 μM dansylcadaverine, 4 μM N,N-dimethylcasein, 200 mM NaCl, pH=8.0). 285 μl of this reaction mix are added per well containing the inhibitor.
Increase in fluorescence is measured using λex=330 nm and λemG=500 nm at […] for 30 min. A slope of the increase in fluorescence between 20 and 30 min is calculated for determination of the IC50 value (inhibitor concentration at which 50% of the initial activity is blocked).
Analysis of enzymatic activity is performed by calculation of the slope of an increase in fluorescence intensity. IC50 values are calculated by plotting the enzymatic activity (as percentage from control containing 2% DMSO instead of inhibitor) against the inhibitor concentration. IC50 is defined as the inhibitor concentration blocking 50% of initial enzyme activity.

Series [3] can be described thus: Log D by shake flask method (octanol / PBS pH 7.4, HPLC). It is filed as physicochemical. Conditions: octanol / PBS pH 7.4, shake flask; read-out: logD. As to the method:
In order to classify the inventive compounds according to their lipophilicity, Log D values (distribution coefficient) were determined by means of the well-established shake flask method, measuring the partition of a compound between an octanol and phosphate-buffered saline (PBS, pH 7.4) by HPLC.
Compounds with a moderate lipophilicity (Log D values from 0 to 3) are usually advantaged for oral absorption, being in balance between solubility and permeability. However, sophisticated formulation of a compound might improve oral bioavailability for highly lipophilic compounds.

A value given as a limit tells only on which side of the number the result lay.

For `CCNC(=O)C(=O)CC[C@H](NC(=O)c1cncn1C)C(=O)Nc1cccn(CC(=O)NC23CC4CC(C2)C(F)(F)C(C4)C3)c1=O` [Compound I-12, (S)-N1-ethyl-N6-(1-(2-(4,4-difluoroadamantane-1-amino)-2-oxoethyl)-2-oxo-1,2-dihydropyridin-3-yl)-5-(1-methyl-1H-imidazole-5-carboxamido)-2-oxohexanediamide], the Papp – broadly, the rate of passage across a membrane or cell layer, normalised by area and donor concentration – in series [1] is below 1 ×10⁻⁶ cm/s. Besides, the IC50 – broadly, the concentration at which inhibition is half-maximal – in series [2] lay within 150 to 600 nM. Also, the logD (in general, lipophilicity at a set pH, counting ionised and neutral species) in series [3] is below 1.

In series [1], `CCNC(=O)C(=O)CC[C@H](NC(=O)c1cncn1C)C(=O)Nc1cccn(CC(=O)NC[C@@H]2CC[C@H]3C[C@@H]2C3(C)C)c1=O` [Compound I-13, (S)-N1-(1-(2-(((1S,2R,5S)-6,6-dimethylbicyclo[3.1.1]heptan-2-yl)methylamino)-2-oxoethyl)-2-oxo-1,2-dihydropyridin-3-yl)-N6-ethyl-2-(1-methyl-1H-imidazole-5-carboxamido)-5-oxohexanediamide] yielded a Papp below 1 ×10⁻⁶ cm/s. In addition, the IC50 in series [2] is 600 to 3500 nM. In addition, in series [3], the logD was 1 to 3.

Compound `CCNC(=O)C(=O)CC[C@H](NC(=O)c1cncn1C)C(=O)Nc1cccn(CC(=O)NC[C@@H]2CC[C@@H]3C[C@H]2C3(C)C)c1=O` [Compound I-14, (S)-N1-(1-(2-(((1R,2R,5R)-6,6-dimethylbicyclo[3.1.1]heptan-2-yl)methylamino)-2-oxoethyl)-2-oxo-1,2-dihydropyridin-3-yl)-N6-ethyl-2-(1-methyl-1H-imidazole-5-carboxamido)-5-oxohexanediamide] displayed a Papp in series [1] below 1 ×10⁻⁶ cm/s. In series [2], the IC50 lay in the range of 150 to 600 nM. The logD in series [3] lay in the range of 1 to 3.

On to `CCNC(=O)C(=O)CC[C@H](NC(=O)c1cn(C)cn1)C(=O)Nc1cccn(CC(=O)NC23CC4CC(CC(CC)(C4)C2)C3)c1=O` [Compound I-15, (S)-N1-ethyl-N6-(1-(2-(3-ethyladamantane-1-amino)-2-oxoethyl)-2-oxo-1,2-dihydropyridin-3-yl)-5-(1-methyl-1H-imidazole-4-carboxamido)-2-oxohexanediamide], for which, in series [1], the Papp was below 1 ×10⁻⁶ cm/s. Further, the IC50 in series [2] lay within 600 to 3500 nM. In series [3], the logD was in the range of 1 to 3.

`CCNC(=O)C(=O)CC[C@H](NC(=O)c1nccn1C)C(=O)Nc1cccn(CC(=O)NC23CC4CC(CC(CC)(C4)C2)C3)c1=O` [Compound I-16, (S)-N1-ethyl-N6-(1-(2-(3-ethyladamantane-1-amino)-2-oxoethyl)-2-oxo-1,2-dihydropyridin-3-yl)-5-(1-methyl-1H-imidazole-2-carboxamido)-2-oxohexanediamide] registered an apparent permeability (Papp) in series [1] below 1 ×10⁻⁶ cm/s. Moreover, in series [2], the half-maximal inhibitory concentration (IC50) was in the range of 600 to 3500 nM. In addition, the logD in series [3] is 1 to 3.

As to `CCNC(=O)C(=O)CC[C@H](NC(=O)c1c(C)ncn1C)C(=O)Nc1cccn(CC(=O)NC23CC4CC(CC(CC)(C4)C2)C3)c1=O` [Compound I-17, (S)-2-(1,4-dimethyl-1H-imidazole-5-carboxamido)-N6-ethyl-N1-(1-(2-(3-ethyladamantane-1-amino)-2-oxoethyl)-2-oxo-1,2-dihydropyridin-3-yl)-5-oxohexanediamide], the Papp in series [1] is below 1 ×10⁻⁶ cm/s. Also, the half-inhibitory concentration (IC50) in series [2] is 600 to 3500 nM. Further, the pH-dependent lipophilicity (logD) in series [3] is 1 to 3.

For the compound `CCNC(=O)C(=O)CC[C@H](NC(=O)c1cn(CC(C)C)cn1)C(=O)Nc1cccn(CC(=O)NC23CC4CC(CC(CC)(C4)C2)C3)c1=O` [Compound I-18, (S)-N1-ethyl-5-(1-isobutyl-1H-imidazole-4-carboxamido)-N6-(1-(2-(3-ethyladamantane-1-amino)-2-oxoethyl)-2-oxo-1,2-dihydropyridin-3-yl)-2-oxohexanediamide], the Papp in series [1] is below 1 ×10⁻⁶ cm/s. For the same compound, the IC50 in series [2] fell in the range of 600 to 3500 nM. Besides, the logD in series [3] lay within 3 to 5.

As for `CCNC(=O)C(=O)CC[C@H](NC(=O)c1cn(C2CCCC2)cn1)C(=O)Nc1cccn(CC(=O)NC23CC4CC(CC(CC)(C4)C2)C3)c1=O` [Compound I-19, (S)-2-(1-cyclopentyl-1H-imidazole-4-carboxamido)-N6-ethyl-N1-(1-(2-(3-ethyladamantane-1-amino)-2-oxoethyl)-2-oxo-1,2-dihydropyridin-3-yl)-5-oxohexanediamide], the Papp in series [1] is below 1 ×10⁻⁶ cm/s. For the same compound, in series [2], the IC50 is 600 to 3500 nM. The logD in series [3] is 3 to 5.

In series [1], `CCNC(=O)C(=O)CC[C@H](NC(=O)c1cn(C2CCC2)cn1)C(=O)Nc1cccn(CC(=O)NC23CC4CC(CC(CC)(C4)C2)C3)c1=O` [Compound I-20, (S)-2-(1-cyclobutyl-1H-imidazole-4-carboxamido)-N6-ethyl-N1-(1-(2-(3-ethyladamantane-1-amino)-2-oxoethyl)-2-oxo-1,2-dihydropyridin-3-yl)-5-oxohexanediamide] gave an apparent permeability coefficient (Papp) below 1 ×10⁻⁶ cm/s. Besides, in series [2], the 50% inhibitory concentration (IC50) fell in the range of 600 to 3500 nM. The logD in series [3] fell in the range of 1 to 3.

`CCNC(=O)C(=O)CC[C@H](NC(=O)c1c(C)ncn1C)C(=O)Nc1cccn(CC(=O)NC23CC4CC(C)(CC(C)(C4)C2)C3)c1=O` [Compound I-21, (S)-2-(1,4-dimethyl-1H-imidazole-5-carboxamido)-N6-ethyl-N1-(1-(2-(3,5-dimethyladamantane-1-amino)-2-oxoethyl)-2-oxo-1,2-dihydropyridin-3-yl)-5-oxohexanediamide]: the Papp in series [1] is below 1 ×10⁻⁶ cm/s. Also, the IC50 in series [2] fell in the range of 600 to 3500 nM. For the same compound, the logD in series [3] lay in the range of 1 to 3.

With `CCNC(=O)C(=O)CC[C@H](NC(=O)c1cn(C)cn1)C(=O)Nc1cccn(CC(=O)NC23CC4CC(C)(CC(C)(C4)C2)C3)c1=O` [Compound I-22, (S)-N1-ethyl-N6-(1-(2-(3,5-dimethyladamantane-1-amino)-2-oxoethyl)-2-oxo-1,2-dihydropyridin-3-yl)-5-(1-methyl-1H-imidazole-4-carboxamido)-2-oxohexanediamide], the Papp in series [1] was below 1 ×10⁻⁶ cm/s. Moreover, in series [2], the IC50 lay within 600 to 3500 nM. For the same compound, the logD in series [3] was in the range of 1 to 3.
